Earlier results on one compound are cited in US20080292726A1, “[…] COMPOSITIONS AND METHODS OF THEIR USE” (priority 2007, published 2008).

The data set relates to mouse model of uveitis. Particulars: systemically administered, subcutaneously injected into the neck.

Turning to `O=[N+]([O-])[O-].O=[N+]([O-])[O-].O=[N+]([O-])[O-].[Ga+3]` [gallium nitrate], the “efficacy in a mouse model of uveitis” value is recorded as “effective”.
